{"source": "patent US20190022092A1", "about": "“Therapeutic Combinations of a BTK Inhibitor and a GITR Binding Molecule, a 4-1BB Agonist, or an OX40 Agonist” (Acerta Pharma B.V., priority 2015, published 2019)", "key": {"[1]": {"test_system": "Raji cell line", "test": "Antibody-dependent NK cell-mediated cytotoxicity, chromium release, Raji cell line", "assay_type": "cell-based", "settings": "1 μM, 4 hours, variable rituximab, effector:target 25:1"}, "[2]": {"test_system": "CD8+ T cell", "test": "Cytotoxicity assay for CD8+ T cell function", "assay_type": "cell-based", "settings": "relative to vehicle", "from_the_text": "FIG. 38 illustrates the results of the cytotoxicity assay for CD8^+ T cell function."}, "[3]": {"test_system": "CD8+ T cell", "test": "IFN-γ level measurements for CD8+ T cell function", "assay_type": "cell-based", "settings": "relative to vehicle", "from_the_text": "FIG. 39 illustrates the results of IFN-γ level measurements for CD8^+ T cell function."}, "[4]": {"test_system": "GPVI platelet aggregation", "test": "GPVI platelet aggregation studies", "assay_type": "cell-based", "settings": "read-out: IC50, GPVI platelet aggregation"}, "[5]": {"test_system": "NK cell lysis of Raji cells", "test": "Rituximab ADCC 51Cr release assay, Raji targets", "assay_type": "cell-based, human", "from_the_text": "Cell culture conditions were as follows. […] The HER18 cells were maintained in DEM supplemented with fetal bovine serum, penicillin-streptomycin and. Prior to assay, HER18 cells were harvested using trypsin-EDTA, washed with phosphate-buffered saline (PBS) containing 5% serum and viable cells were counted. For culture of primary target cells, peripheral blood from CLL patients was subject to density centrifugation to obtain peripheral blood mononuclear cells (PBMC). Cell preparations were washed and then subject to positive selection of CD5^+CD19^+ CLL cells using magnetic beads (MACS, Miltenyi Biotech). Cell preparations were used fresh after selection. NK cells from CLL patients and healthy volunteers were enriched from peripheral blood collected in sodium citrate anticoagulant tubes and then subject to density centrifugation. Removal of non NK cells was performed using negative selection by MACS separation. Freshly isolated NK cells were washed three times, enumerated, and then used immediately for ADCC assays.\nADCC assays were performed as follows. Briefly, target cells (Raji or primary CLL) were labeled by incubation at 37° C. with 100 μCi ^51Cr for 4 hours prior to co-culture with NK cells. Cells were washed, enumerated, and then added in triplicate to prepared 96-well plates containing treated NK cells at an effector:target (E:T) ratio of 25:1. […] Cultures were incubated at 37° C. for 4 hours, and then centrifuged. Supernatants were harvested and ^51Cr release was measured by liquid scintillation counting. All experiments were performed in triplicate."}, "[6]": {"test_system": "Th17 and Treg cells", "test": "Th17 and Treg development of CD4+ T cells under skewing cytokines", "assay_type": "cell-based", "method": "Enriched CD4^+ T cells are plated on 24-well culture dishes that have been precoated 2 hr with 250 μL anti-TCRβ (0.5 μg/mL) plus anti-CD28 (5 μg/mL) at 37° C. in PBS. The cells are then supplemented with media containing BTK inhibitors along with the skewing cytokines as indicated in the following. The Th17 and Treg cultures are grown for 4 days before analysis. The cells are maintained for an additional 3 days with skewing cytokines (Th17; 20 ng/mL IL-6, 0.5 ng/mL TGF-β, 5 μg/mL IL-4, 5 μg/mL IFN-γ and Treg; 0.5 ng/mL TGF-β, 5 μg/mL IL-4, 5 μg/mL IFN-γ) and are supplemented with IL2 as a growth factor."}, "[7]": {"test_system": "CD8+ T cells", "test": "CD8+ T cell viability on anti-TCR/anti-CD28 coated wells", "assay_type": "cell-based", "settings": "4 days, neutral culture conditions", "method": "Total T cells were plated on anti-TCR and anti-CD28 coated wells in the presence of both BTK inhibitors. Neutral culture conditions were used that will not polarize T cells to a helper lineage. […] Statistical significance was calculated using the Mann Whitney T-test."}, "[8]": {"test_system": "CD8+ T cell function (B lymphoblast targets)", "test": "Cytotoxic T cell (CTL) assay", "assay_type": "cell-based", "settings": "CTL generated 4 days with 500 nM inhibitor", "method": "Without being bound by any theory, CD8^+ T cells have two primary effector functions: (1) produce large amounts of IFN-γ (which activates macrophages), and (2) cytolytic activity. […] The targets were B lymphoblasts from lipopolysaccharide (LPS) treated cultures. The assay was performed by incubating different ratios of effectors:targets for 4 hours."}, "[9]": {"test_system": "GPVI platelet aggregation", "test": "GPVI (convulxin-induced) platelet aggregation", "assay_type": "cell-based", "settings": "human platelets", "method": "In FIG. 67, the results of CVX-induced (250 ng/mL) human platelet aggregation results before and 15 minutes after administration of the BTK inhibitors to 6 healthy individuals are shown."}, "[10]": {"test_system": "hematologic malignancies", "settings": "cited from earlier work"}, "[11]": {"test_system": "human platelet-mediated thrombosis", "settings": "VWF HA1, mouse (infused with human platelets), in vivo, 2 min", "method": "Injury to the vessel wall of arterioles ([…] diameter) was performed using a pulsed nitrogen dye laser (440 nm, Photonic Instruments) applied through a 20× water-immersion Olympus objective (LUMPlanF1, 0.5 numerical aperture (NA)) of a Zeiss Axiotech vario microscope. […] The extent of thrombus formation was assessed for 2 minutes after injury and the area (μm^2) of coverage determined (Image IQ, Andor Technology).\nThe BTK inhibitor-treated human platelets were fluorescently labeled and infused continuously through a catheter inserted into the femoral artery."}, "[12]": {"test_system": "peripheral blood B cell", "settings": "doses from 0.001-100 mg/kg, two experiments; cited from earlier work"}}}
{"molecule": "C=CC(=O)N1CCC[C@@H](n2nc(-c3ccc(Oc4ccccc4)cc3)c3c(N)ncnc32)C1", "note": "[Formula (10), 1-[(3R)-3-[4-amino-3-(4-phenoxyphenyl)-1H-pyrazolo[3,4-d]pyrimidin-1-yl]piperidin-1-yl]prop-2-en-1-one, reference compound]", "values": [{"measurement": "antibody-dependent NK cell-mediated cytotoxicity (percent lysis)", "setting": "[1]", "result": "antagonizes antibody-dependent NK cell-mediated cytotoxicity"}, {"measurement": "CD8+ T cell function as % cytotoxicity", "setting": "[2]", "result": "affects CD8^+ T cell function as measured by % cytotoxicity"}, {"measurement": "CD8+ T cell function as IFN-γ level", "setting": "[3]", "result": "affects CD8^+ T cell function as measured by IFN-γ level"}, {"measurement": "IC50", "setting": "[4]", "result": 130, "unit": "nM"}, {"measurement": "effect on rituximab-mediated ADCC, Raji cells", "setting": "[5]; 1 μM, NK cells, E:T 25:1", "result": "strongly inhibited"}, {"measurement": "Th17 development", "setting": "[6]", "result": "profound inhibition"}, {"measurement": "Treg development", "setting": "[6]", "result": "increase"}, {"measurement": "CD8+ T cell viability", "setting": "[7]", "result": "strong, negative effect"}, {"measurement": "CD8+ T cell function as % cytotoxicity", "setting": "[8]", "result": "affects CD8^+ T cell function"}, {"measurement": "CD8+ T cell function as IFN-γ levels", "setting": "[8]", "result": "significant loss of function"}, {"measurement": "GPVI platelet aggregation", "setting": "[9]", "result": "significantly inhibits"}, {"measurement": "antitumor activity", "setting": "[10]; subjects with heavily pretreated non-Hodgkin lymphoma", "result": "substantial antitumor activity"}, {"measurement": "maximum tolerated dose (MTD)", "setting": "[10]; within the tested dose range (through 840 mg)", "result": "No maximum tolerated dose (MTD) was apparent"}]}
{"molecule": "C=CC(=O)Nc1cccc(Nc2nc(Nc3ccc(OCCOC)cc3)ncc2F)c1", "note": "[Formula (17), N-(3-((5-fluoro-2-((4-(2-methoxyethoxy)phenyl)amino)pyrimidin-4-yl)amino)phenyl)acrylamide, reference compound]", "values": [{"measurement": "effect on human platelet-mediated thrombus formation", "setting": "[11]", "result": "effect similar to Formula (10) (ibrutinib)"}]}
{"molecule": "PF-05082566: 4-1BB agonist monoclonal antibody from Pfizer; heavy chain SEQ ID NO:435, light chain SEQ ID NO:436", "values": [{"measurement": "peripheral blood B cell numbers", "setting": "[12]", "result": "either unchanged or decreased"}]}
{"molecule": "rituximab: anti-CD20 antibody (Genentech)", "values": [{"measurement": "increase in cell lysis over natural cytotoxicity", "setting": "[5]; rituximab 0.1 and 1 μg/mL, healthy donor NK cells, Raji cells", "result": "5- to 8 fold"}]}
